Measurements published in publication PMC4724290 (Synapse (New York, N.Y.), 2015).
Values joined by “and” are separate entries in the source; they are usually repeats but may differ in a detail not shown here. Equal entries are not always repeated. “Also recorded” adds a separate entry of the source. Structures can show the parent of a compound that is named as a salt. Where two headings read alike, the source gives them in different places.

Experiments:
[1] = target: σ1 receptors; conditions: read-out: σ1 Ki, ref Lever et al., cited from earlier work
[2] = target: σ2 receptors; conditions: read-out: Ki for σ2 receptors; ref Kovács and Larson (1995); cited from earlier work
[3] = target: T1, σ1 receptors (Mus musculus, UniProt O55242); test: In vitro σ1 receptor binding, [^3H]; parameters: species or system CD-1 mouse; conditions: for Selectivity Ki Ratio σ2/σ1: CD-1 mouse whole brain membranes
T1 sequence (O55242 whole entry): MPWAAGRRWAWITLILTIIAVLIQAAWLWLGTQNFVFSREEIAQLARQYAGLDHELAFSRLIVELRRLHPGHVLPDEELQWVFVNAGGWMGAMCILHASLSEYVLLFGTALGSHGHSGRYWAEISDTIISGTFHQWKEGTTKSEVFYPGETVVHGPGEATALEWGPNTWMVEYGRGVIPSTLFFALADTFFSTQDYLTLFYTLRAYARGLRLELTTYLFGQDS

[4] = target: T2, σ2 receptors (Mus musculus, UniProt Q8VD00); test: In vitro σ2 receptor binding, [^3H]DTG/; parameters: species or system CD-1 mouse
T2 sequence (Q8VD00 1-176): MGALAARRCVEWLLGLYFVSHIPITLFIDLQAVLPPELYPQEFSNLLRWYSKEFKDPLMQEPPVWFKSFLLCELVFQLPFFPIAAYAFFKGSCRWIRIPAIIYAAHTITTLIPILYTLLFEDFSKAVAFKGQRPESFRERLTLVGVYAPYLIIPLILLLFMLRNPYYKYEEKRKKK

[5] = system: CD-1 mice; test: Locomotor activity: basal and; assay type: in vivo; conditions: for Effect on basal locomotor activity: i.p., E-IA-DM-PE-PIPZE up to 3.16 μmol/kg, BD1063 3.16 and 31.6 μmol/kg, 60 min
[6] = target: DAT; conditions: cited from earlier work
[7] = system: Swiss Webster mice; conditions: doses as low as 0.1 mg/kg (0.29 μmol/kg); ref Matsumoto et al., 2001a; cited from earlier work
[8] = target: T1, σ1 receptors; conditions: ref Lever et al., cited from earlier work
[9] = target: striatal dopamine transporters (DAT) (Mus musculus, UniProt Q61327); test: In vivo DAT occupancy: inhibition of [^125I]RTI-121 specific binding in striatum; parameters: species or system CD-1 mice; conditions: for Inhibition of striatal [^125I]RTI-121 specific binding: 10.0 μmol/kg i.p.
striatal dopamine transporters (DAT), sequence (Q61327 whole entry): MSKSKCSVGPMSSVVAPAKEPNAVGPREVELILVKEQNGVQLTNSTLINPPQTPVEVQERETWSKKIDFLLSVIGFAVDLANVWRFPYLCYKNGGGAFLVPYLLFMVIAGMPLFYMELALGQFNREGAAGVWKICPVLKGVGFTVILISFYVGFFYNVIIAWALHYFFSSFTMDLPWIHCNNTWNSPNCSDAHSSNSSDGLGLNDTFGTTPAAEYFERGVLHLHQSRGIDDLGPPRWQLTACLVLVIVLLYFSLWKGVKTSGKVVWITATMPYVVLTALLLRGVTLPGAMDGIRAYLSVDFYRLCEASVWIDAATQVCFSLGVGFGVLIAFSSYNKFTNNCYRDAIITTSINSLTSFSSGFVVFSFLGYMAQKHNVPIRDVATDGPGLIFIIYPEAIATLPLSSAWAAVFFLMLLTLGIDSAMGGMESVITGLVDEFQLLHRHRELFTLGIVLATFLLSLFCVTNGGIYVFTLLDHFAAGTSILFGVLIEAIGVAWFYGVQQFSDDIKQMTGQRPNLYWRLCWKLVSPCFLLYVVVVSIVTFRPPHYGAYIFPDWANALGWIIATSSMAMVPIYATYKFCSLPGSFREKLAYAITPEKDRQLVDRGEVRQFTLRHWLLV

[10] = target: T1, σ1 receptors; assay type: in vivo, CD-1 mice; conditions: for Occupancy of cerebral σ1 receptors: in the absence of (−)-cocaine
[11] = target: T1, σ1 receptors; assay type: in vivo, CD-1 mice; conditions: saline control, 60 min
[12] = ref Lever et al., 2012, 2014a, 2015; cited from earlier work
[13] = ref Fowler et al., 2007; cited from earlier work
[14] = system: striatal DAT; conditions: Swiss Webster strain; ref Desai and colleagues (2005); cited from earlier work
[15] = system: mice; conditions: cited from earlier work
[16] = target: T1, σ1 receptors; conditions: read-out: Kd for σ1 sites in mouse brain membranes; ref Lever et al., 2012; cited from earlier work
[17] = 3.0 nM [^3H](+)pentazocine, 37 °C, 180 min
[18] = 3.0 nM [^3H]DTG/500 nM (+)pentazocine, 25 °C, 60 min
[19] = 2.5 μCi i.v., 60 min, non-specific defined by BD1063
[20] = read-out: Sigma1 IC50, 3.0 nM [^3H](+)pentazocine, 37 °C, 180 min
[21] = read-out: Sigma2 IC50, 3.0 nM [^3H]DTG/500 nM (+)pentazocine, 25 °C, 60 min
[22] = homologous saturation, 25 °C, 60 min, two-site model
[23] = ligand i.p. 1 min prior to radioligand, 30 min, unconstrained fit

Compound: COc1ccc2c(c1)[C@]13CCCC[C@@H]1[C@H](C2)N(C)CC3 [Dextromethorphan, dextromethorphan hydrobromide]
- Ki [1]; 2015: 63 nM
- Ki [2]: 1740 nM
- IC50 [3]: 97.5 ± 6.9 nM
- Ki [3]: 63.1 ± 4.5 nM
- Sigma1 nH [3, 17]: 0.88 ± 0.07
- IC50 [4]: 30000 ± 2820 nM
- Ki [4]: 26800 ± 2530 nM

Compound: CN1CCN(CCc2ccc(Cl)c(Cl)c2)CC1 [BD1063, 1-[2-(3,4-dichlorophenyl)ethyl]-4-methylpiperazine]
- Increase of (−)-cocaine-induced hyperactivity ([5]; 3.16 μmol/kg i.p., not statistically significant): 17%
- Decrease of (−)-cocaine-induced hyperactivity ([5]; 31.6 μmol/kg i.p., not statistically significant): 19%
- Effect on basal locomotor activity [5]: did not significantly affect basal activity
- Ki ([6]; read-out: Ki for the DAT (apparent affinity), ref Garcés-Ramírez et al., 2011): 8000 nM
- Protection from (−)-cocaine-induced convulsions [7]: protect
- Occupancy of cerebral σ1 receptors ([8]; doses ≥ 3.16 μmol/kg, in the absence of (−)-cocaine, 2014b): ≥ 89%
- ED50 for σ1 occupancy, brain ([8]; same protocol, 2014b): 0.62 µmol/kg
- ED50 for σ1 occupancy, heart ([8]; same protocol, 2014b): 0.14 µmol/kg
- ED50 for σ1 occupancy, lung ([8]; same protocol, 2014b): 0.20 µmol/kg
- ED50 for σ1 occupancy, spleen ([8]; same protocol, 2014b): 1.47 µmol/kg
- Affinity for σ1 receptors relative to (−)-cocaine (higher) [3]: ~200 fold
- Affinity for σ1 receptors relative to PD144418 (lower) [3]: 30 fold
- IC50 [3]: 9.68 ± 1 nM
- Ki [3]: 5.98 ± 0.62 nM
- Sigma1 nH [3, 17]: 1.17 ± 0.08
- Selectivity Ki Ratio σ2/σ1 [3]: 127
- Inhibition of striatal [^125I]RTI-121 specific binding [9]: did not inhibit
- IC50 [4]: 843 ± 104 nM
- Ki [4]: 762 ± 94 nM
- Sigma2 nH [4, 18]: 0.96 ± 0.13

Compound: COc1ccc(CCN2CCN(C/C=C/[125I])CC2)cc1OC [[^125I]E-IA-DM-PE-PIPZE, [^125I]E-N-1-(3′-iodoallyl)-N′-4-(3″,4″-dimethoxyphenethyl)-piperazine]
- Control specific binding to σ1 receptors, brain [10, 19]: 83%
- Control specific binding to σ1 receptors, heart [10, 19]: 53%
- Control specific binding to σ1 receptors, lung [10, 19]: 66%
- Control specific binding to σ1 receptors, spleen [10, 19]: 71%
- Specific Binding [^125I]E-IA-DM-PE-PIPZE, Control ([11]; Caudate-putamen): 1.96 ± 0.07 fmol/mg tissue
- Specific Binding [^125I]E-IA-DM-PE-PIPZE, Control ([11]; Cortex, Cingulate): 2.69 ± 0.20 fmol/mg tissue
- Specific Binding [^125I]E-IA-DM-PE-PIPZE, Control ([11]; Cortex, Entorhinal): 2.52 ± 0.09 fmol/mg tissue
- Specific Binding [^125I]E-IA-DM-PE-PIPZE, Control ([11]; Cortex, Frontal): 2.99 ± 0.19 fmol/mg tissue
- Specific Binding [^125I]E-IA-DM-PE-PIPZE, Control ([11]; Cortex, Parietal): 3.12 ± 0.14 fmol/mg tissue
- Specific Binding [^125I]E-IA-DM-PE-PIPZE, Control ([11]; Cortex, Temporal): 2.93 ± 0.16 fmol/mg tissue
- Specific Binding [^125I]E-IA-DM-PE-PIPZE, Control ([11]; Diencephalon, Thalamic nuclei): 2.94 ± 0.10 fmol/mg tissue
- Specific Binding [^125I]E-IA-DM-PE-PIPZE, Control ([11]; Diencephalon, Thalamus): 2.57 ± 0.13 fmol/mg tissue
- Specific Binding [^125I]E-IA-DM-PE-PIPZE, Control ([11]; Hippocampus, CA1 pyramidal): 2.25 ± 0.12 fmol/mg tissue
- Specific Binding [^125I]E-IA-DM-PE-PIPZE, Control ([11]; Hippocampus, CA2 pyramidal): 2.87 ± 0.13 fmol/mg tissue
- Specific Binding [^125I]E-IA-DM-PE-PIPZE, Control ([11]; Hippocampus, CA3 pyramidal): 3.34 ± 0.10 fmol/mg tissue
- Specific Binding [^125I]E-IA-DM-PE-PIPZE, Control ([11]; Hippocampus, Dentate Gyrus): 3.27 ± 0.08 fmol/mg tissue
- Specific Binding [^125I]E-IA-DM-PE-PIPZE, Control ([11]; Hippocampus, Nonpyramidal): 1.84 ± 0.08 fmol/mg tissue
- Specific Binding [^125I]E-IA-DM-PE-PIPZE, Control ([11]; Mesencephalon, Inferior Colliculi): 3.50 ± 0.20 fmol/mg tissue
- Specific Binding [^125I]E-IA-DM-PE-PIPZE, Control ([11]; Mesencephalon, Periaqueductal Gray): 4.07 ± 0.13 fmol/mg tissue
- Specific Binding [^125I]E-IA-DM-PE-PIPZE, Control ([11]; Mesencephalon, Superior Colliculi): 3.50 ± 0.14 fmol/mg tissue
- Specific Binding [^125I]E-IA-DM-PE-PIPZE, Control ([11]; Metencephalon, Cerebellum (whole)): 3.18 ± 0.08 fmol/mg tissue
- Specific Binding [^125I]E-IA-DM-PE-PIPZE, Control ([11]; Metencephalon, Granular layer): 4.13 ± 0.20 fmol/mg tissue
- Specific Binding [^125I]E-IA-DM-PE-PIPZE, Control ([11]; Metencephalon, Molecular layer): 2.38 ± 0.08 fmol/mg tissue
- Specific Binding [^125I]E-IA-DM-PE-PIPZE, Control ([11]; White Matter, Corpus callosum): 1.99 ± 0.06 fmol/mg tissue
- Metabolic stability [12]: excellent metabolic stability
- Selectivity for binding to σ1 over σ2 receptors ([3]; from Table II): 200 fold

Compound: (−)-Cocaine hydrochloride
- Log D7.4 [13]: 1.31
- ED50 for displacement of striatal binding [14]: 38 µmol/kg
- ED50 for maximum stimulatory effects on locomotor activity ([15]; CD-1 mice, 3 h period, ref Thomsen and Caine (2011)): 18.2 mg/kg
- ED50 for maximum stimulatory effects on locomotor activity ([15]; CD-1 mice, first hour, ref Carroll et al. (2004)): 10 mg/kg
- ED50 for maximum stimulatory effects on locomotor activity ([15]; Swiss Webster mice, 3 h period, ref Thomsen and Caine (2011)): 9.7 mg/kg

Compound: C=CCN1CCC2(C)c3cc(O)ccc3CC1C2C (single isomer, unassigned; (+)) [(+)-NANM, (+)-N-allylnormetazocine]
- Sigma1 nH [3, 17]: 1.06 ± 0.11
- Selectivity Ki Ratio σ2/σ1 [3]: 608
- IC50 [3, 20]: 20.6 ± 1.14 nM
- Ki ([3]; read-out: Sigma1 Ki): 13.3 ± 0.74 nM
- Sigma2 nH [4, 18]: 0.98 ± 0.12
- IC50 [4, 21]: 8990 ± 850 nM

Compound: Cc1ccccc1NC(=N)Nc1ccccc1C [DTG, 1,3-di(2-tolyl)guanidine]
- IC50 [3]: 173 ± 19.9 nM
- Ki [3]: 112 ± 12.9 nM
- Sigma1 nH [3, 17]: 0.91 ± 0.14
- Sigma2 nH [4, 18]: 0.88 ± 0.05

Compound: CC(C)=CCN1CC[C@]2(C)c3cc(O)ccc3C[C@H]1[C@H]2C [[^3H](+)-Pentazocine]
- Maximal site density (Bmax), σ1 receptors ([3]; saturation binding, 37 °C, 180 min): 538 ± 30 fmol/mg protein and 538 fmol/mg protein

Compound: C=CCN1CCC2(C)c3cc(O)ccc3CC1C2C (single isomer, unassigned; (-)) [(−)-NANM, (−)-N-allylnormetazocine]
- Sigma1 nH [3, 17]: 1.09 ± 0.08
- Selectivity Ki Ratio σ2/σ1 [3]: 2.6
- IC50 [3, 20]: 3980 ± 600 nM
- Ki ([3]; read-out: Sigma1 Ki): 2550 ± 383 nM
- Sigma2 nH [4, 18]: 0.93 ± 0.08
- IC50 [4, 21]: 7460 ± 469 nM

Compound: Fc1ccc(C(OCCN2CCN(CCCc3ccccc3)CC2)c2ccc(F)cc2)cc1 [GBR12909, 1-{2-[bis-(4-fluorophenyl)methoxy]ethyl}-4-(3-phenylpropyl)piperazine]
- inhibition at 10 µmol/kg ([9]; mouse, iv, read-out: Inhibition of specific [^125I]RTI-121 binding): 75%

Compound: CC(C)=CCN1CC[C@]2(C)c3cc(O)ccc3C[C@H]1[C@H]2C [(+)-Pentazocine, (+)-pentazocine]
- Sigma1 nH [3, 17]: 1.09 ± 0.03

Compound: Cc1ccccc1NC(=N)Nc1ccccc1C [[^3H]DTG]
- Bmax, high affinity, low capacity site (σ2 receptor) [4, 22]: 711 ± 81 fmol/mg protein
- Bmax, low affinity, high capacity site [4, 22]: 21307 ± 7059 fmol/mg protein

Compound: COc1ccc(CCN2CCN(C/C=C/I)CC2)cc1OC [E-IA-DM-PE-PIPZE, E-N-1-(3′-iodoallyl)-N′-4-(3″,4″-dimethoxyphenethyl)-piperazine]
- Occupancy of cerebral σ1 receptors ([10]; 0.316 μmol/kg i.p.): 58%
- Occupancy of cerebral σ1 receptors ([10]; 3.16 μmol/kg i.p.): 86%
- ED50 for σ1 occupancy, brain [10, 23]: 0.23 µmol/kg
- ED50 for σ1 occupancy, heart [10, 23]: 0.03 µmol/kg
- ED50 for σ1 occupancy, lung [10, 23]: 0.08 µmol/kg
- ED50 for σ1 occupancy, spleen [10, 23]: 0.35 µmol/kg
- Effect on basal locomotor activity [5]: do not significantly; also recorded: not affected
- Ki ([6]; read-out: Ki for the DAT in vitro, ref Lever et al., 2012): > 10000 nM
- Sigma1 nH [3, 17]: 0.98 ± 0.07
- Selectivity Ki Ratio σ2/σ1 [3]: 215
- IC50 [3, 20]: 10.4 ± 1.39 nM
- Ki ([3]; read-out: Sigma1 Ki): 6.73 ± 0.9 nM
- Inhibition of striatal [^125I]RTI-121 specific binding [9]: did not affect radioligand binding; also recorded: No inhibition
- Sigma2 nH [4, 18]: 0.98 ± 0.08
- IC50 [4, 21]: 1600 ± 243 nM

Compound: COc1ccc(CCN2CCN(C/C=C/I)CC2)cc1OC [[^125I]E-IA-DM-PE-PIPZE, [^125I]E-N-1-(3′-iodoallyl)-N′-4-(3″,4″-dimethoxyphenethyl)-piperazine]
- Kd [16]: 3.79 nM

Compound: CCCN1CCC=C(c2cc(-c3ccc(C)cc3)no2)C1 [PD144418]
- Ki ([1]; 2014a): 0.19 nM
- σ1 receptor occupancy threshold for significant behavioral effects ([8]; 2014a): 80%

Compound: CC(C(O)c1ccc(O)cc1)N1CCC(Cc2ccccc2)CC1 (stereo not drawn) [Ifenprodil, ifenprodil (+)-tartrate]
- IC50 [3]: 35 ± 0.95 nM
- Ki [3]: 22.7 ± 0.61 nM
- Sigma1 nH [3, 17]: 1.08 ± 0.06
- Selectivity Ki Ratio σ2/σ1 [3]: 0.1
- IC50 [4]: 2.69 ± 0.36 nM
- Ki [4]: 2.43 ± 0.32 nM
- Sigma2 nH [4, 18]: 0.70 ± 0.07
